ChEMBL document CHEMBL1146886, “Antibacterial activity of pyrrolopyridine-substituted oxazolidinones: synthesis and in vitro SAR of various C-5 acetamide replacements” (2006)
In brackets after ≈: the same amount, converted by molar mass.

Columns and labels:
Type in all cases: functional
Enterococcus faecium = experiment: Antibacterial activity against gram positive vancomycin-resistant Enterococcus faecium OC 3312
Enterococcus faecalis = experiment: Antibacterial activity against gram positive vancomycin-susceptible Enterococcus faecalis ATCC 29212
Staphylococcus aureus [1] = experiment: Antibacterial activity against gram positive methicillin-resistant Staphylococcus aureus OC 2878
Staphylococcus aureus [2] = experiment: Antibacterial activity against gram positive methicillin-susceptible Staphylococcus aureus Smith OC 4172 by broth microdilution assay
Staphylococcus aureus [3] = experiment: Antibacterial activity against gram positive Staphylococcus aureus Smith OC 4172 in presence of 50% mouse serum

Compound	MIC (Enterococcus faecium) [µg/mL]	MIC (Enterococcus faecalis) [µg/mL]	MIC (Staphylococcus aureus [1]) [µg/mL]	MIC (Staphylococcus aureus [2]) [µg/mL]	MIC (Staphylococcus aureus [3]) [µg/mL]
CC(=O)NC[C@H]1CN(c2ccc(N3Cc4cccnc4C3)c(F)c2)C(=O)O1	0.5 (≈ 1.35 µM)	0.5 (≈ 1.35 µM)	0.25 (≈ 0.675 µM)	0.5 (≈ 1.35 µM)	1
O=C1O[C@@H](COc2ccon2)CN1c1ccc(N2Cc3cccnc3C2)c(F)c1	16 (≈ 40.4 µM)	> 32	8 (≈ 20.2 µM)	> 32	> 64
CS/C(=N/C#N)NC[C@H]1CN(c2ccc(-n3cc4cccnc4c3)c(F)c2)C(=O)O1	8 (≈ 18.8 µM)	8 (≈ 18.8 µM)	8 (≈ 18.8 µM)	8 (≈ 18.8 µM)	64
O=C1O[C@@H](Cn2ccccc2=O)CN1c1ccc(N2Cc3cccnc3C2)c(F)c1	> 32	> 32	16 (≈ 39.4 µM)	> 32	64
O=C(CO)NC[C@H]1CN(c2ccc(N3Cc4cccnc4C3)c(F)c2)C(=O)O1	16 (≈ 41.4 µM)	32 (≈ 82.8 µM)	16 (≈ 41.4 µM)	32 (≈ 82.8 µM)	32
CCC(=O)NC[C@H]1CN(c2ccc(N3Cc4cccnc4C3)c(F)c2)C(=O)O1	2 (≈ 5.2 µM)	2 (≈ 5.2 µM)	1 (≈ 2.6 µM)	2 (≈ 5.2 µM)	4
CS(=O)(=O)NC[C@H]1CN(c2ccc(-n3cc4cccnc4c3)c(F)c2)C(=O)O1	> 64	> 64	> 64	> 64	> 64
Cc1cccc(OC[C@H]2CN(c3ccc(N4Cc5cccnc5C4)c(F)c3)C(=O)O2)n1	> 64	> 32	> 128	> 128	> 128
O=C1O[C@@H](C/N=C/NN[N+](=O)[O-])CN1c1ccc(-n2cc3cccnc3c2)c(F)c1	32 (≈ 77.4 µM)	32 (≈ 77.4 µM)	> 128	64 (≈ 155 µM)	128
O=C1O[C@@H](C/N=C/NN[N+](=O)[O-])CN1c1ccc(N2Cc3cccnc3C2)c(F)c1	8 (≈ 19.3 µM)	16 (≈ 38.5 µM)	8 (≈ 19.3 µM)	8 (≈ 19.3 µM)	16
CC(=O)NC[C@H]1CN(c2ccc(N3CCOCC3)c(F)c2)C(=O)O1 [LINEZOLID]	2 (≈ 5.93 µM)	–	1 (≈ 2.96 µM)	–	–
O=C1O[C@@H](COc2cnsn2)CN1c1ccc(N2Cc3cccnc3C2)c(F)c1	2 (≈ 4.84 µM)	8 (≈ 19.4 µM)	1 (≈ 2.42 µM)	2 (≈ 4.84 µM)	8
O=C1O[C@@H](COc2cnsn2)CN1c1ccc(-n2cc3cccnc3c2)c(F)c1	4 (≈ 9.72 µM)	4 (≈ 9.72 µM)	2 (≈ 4.86 µM)	8 (≈ 19.4 µM)	16
O=C1O[C@@H](Cn2ccccc2=O)CN1c1ccc(-n2cc3cccnc3c2)c(F)c1	> 128	> 128	> 128	> 128	> 128
O=C1O[C@@H](COc2cnccn2)CN1c1ccc(N2Cc3cccnc3C2)c(F)c1	> 32	> 32	> 32	> 32	> 32
CC(=O)OCC(=O)NC[C@H]1CN(c2ccc(N3Cc4cccnc4C3)c(F)c2)C(=O)O1	16 (≈ 37.3 µM)	16 (≈ 37.3 µM)	128 (≈ 299 µM)	32 (≈ 74.7 µM)	32
C/C(=N\C#N)NC[C@H]1CN(c2ccc(N3Cc4cccnc4C3)c(F)c2)C(=O)O1	4 (≈ 10.1 µM)	4 (≈ 10.1 µM)	2 (≈ 5.07 µM)	2 (≈ 5.07 µM)	8

Compound	MIC (Enterococcus faecium) [µg/mL]	MIC (Enterococcus faecalis) [µg/mL]	MIC (Staphylococcus aureus [1]) [µg/mL]	MIC (Staphylococcus aureus [2]) [µg/mL]	MIC (Staphylococcus aureus [3]) [µg/mL]
N#Cc1ccc(OC[C@H]2CN(c3ccc(N4Cc5cccnc5C4)c(F)c3)C(=O)O2)nc1	> 64	> 16	> 64	> 64	> 64
COC(=O)NC[C@H]1CN(c2ccc(N3Cc4cccnc4C3)c(F)c2)C(=O)O1	2 (≈ 5.18 µM)	4 (≈ 10.4 µM)	2 (≈ 5.18 µM)	4 (≈ 10.4 µM)	16
CS/C(=N\C#N)NC[C@H]1CN(c2ccc(N3Cc4cccnc4C3)c(F)c2)C(=O)O1	2 (≈ 4.69 µM)	4 (≈ 9.38 µM)	2 (≈ 4.69 µM)	2 (≈ 4.69 µM)	8
CCC(=O)NC[C@H]1CN(c2ccc(-n3cc4cccnc4c3)c(F)c2)C(=O)O1	16 (≈ 41.8 µM)	16 (≈ 41.8 µM)	16 (≈ 41.8 µM)	32 (≈ 83.7 µM)	32
O=C1O[C@@H](COc2ccccn2)CN1c1ccc(N2Cc3cccnc3C2)c(F)c1	> 64	> 64	32 (≈ 78.7 µM)	> 128	> 128
O=C(NC[C@H]1CN(c2ccc(N3Cc4cccnc4C3)c(F)c2)C(=O)O1)C1CCC1	8 (≈ 19.5 µM)	8 (≈ 19.5 µM)	4 (≈ 9.75 µM)	8 (≈ 19.5 µM)	32
CC(=O)NC[C@H]1CN(c2ccc(-n3cc4cccnc4c3)c(F)c2)C(=O)O1	1 (≈ 2.71 µM)	1 (≈ 2.71 µM)	0.5 (≈ 1.36 µM)	1 (≈ 2.71 µM)	2
O=C1O[C@@H](COc2cnccn2)CN1c1ccc(-n2cc3cccnc3c2)c(F)c1	64 (≈ 158 µM)	64 (≈ 158 µM)	8 (≈ 19.7 µM)	> 32	> 32
CS(=O)(=O)NC[C@H]1CN(c2ccc(N3Cc4cccnc4C3)c(F)c2)C(=O)O1	4 (≈ 9.84 µM)	8 (≈ 19.7 µM)	2 (≈ 4.92 µM)	4 (≈ 9.84 µM)	16
COC(=O)NC[C@H]1CN(c2ccc(-n3cc4cccnc4c3)c(F)c2)C(=O)O1	16 (≈ 41.6 µM)	16 (≈ 41.6 µM)	16 (≈ 41.6 µM)	16 (≈ 41.6 µM)	32
O=C1O[C@@H](COc2ccon2)CN1c1ccc(-n2cc3cccnc3c2)c(F)c1	8 (≈ 20.3 µM)	16 (≈ 40.6 µM)	4 (≈ 10.1 µM)	8 (≈ 20.3 µM)	64
O=C(NC[C@H]1CN(c2ccc(-n3cc4cccnc4c3)c(F)c2)C(=O)O1)C1CC1	8 (≈ 20.3 µM)	16 (≈ 40.6 µM)	8 (≈ 20.3 µM)	8 (≈ 20.3 µM)	16
CCOC(=O)NC[C@H]1CN(c2ccc(N3Cc4cccnc4C3)c(F)c2)C(=O)O1	8 (≈ 20 µM)	8 (≈ 20 µM)	4 (≈ 9.99 µM)	8 (≈ 20 µM)	64
Cc1cccc(OC[C@H]2CN(c3ccc(-n4cc5cccnc5c4)c(F)c3)C(=O)O2)n1	> 128	> 64	> 64	> 128	> 128
N#Cc1ccc(OC[C@H]2CN(c3ccc(-n4cc5cccnc5c4)c(F)c3)C(=O)O2)nc1	> 64	> 32	> 64	> 128	> 128
O=C(NC[C@H]1CN(c2ccc(N3Cc4cccnc4C3)c(F)c2)C(=O)O1)C1CC1	2 (≈ 5.05 µM)	2 (≈ 5.05 µM)	2 (≈ 5.05 µM)	2 (≈ 5.05 µM)	4
